Measured values from PubChem BioAssay (NCI).
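Assay format: 96-well plates, 48-hour exposure. Abbreviation: GI50, concentration required for 50% inhibition of growth. At the TGI there is no net growth.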

Legend:
Test in all cases: NCI tumour cell line growth inhibition, 48 h
SK-MEL-28 melanoma = tested on: SK-MEL-28 melanoma
NCI-H23 lung = tested on: NCI-H23 lung
NCI/ADR-RES ovarian = tested on: NCI/ADR-RES ovarian
IGROV1 ovarian = tested on: IGROV1 ovarian
UACC-62 melanoma = tested on: UACC-62 melanoma
U251 CNS = tested on: U251 CNS
A498 renal = tested on: A498 renal
786-0 renal = tested on: 786-0 renal
MOLT-4 leukemia = tested on: MOLT-4 leukemia
SF-268 CNS = tested on: SF-268 CNS

Row | Structure (SMILES) | GI50 (SK-MEL-28 melanoma) [µM] | TGI (SK-MEL-28 melanoma) [µM] | TGI (NCI-H23 lung) [µM] | GI50 (NCI/ADR-RES ovarian) [µM] | TGI (NCI/ADR-RES ovarian) [µM] | TGI (IGROV1 ovarian) [µM] | TGI (UACC-62 melanoma) [µM] | GI50 (U251 CNS) [µM] | TGI (U251 CNS) [µM] | TGI (A498 renal) [µM] | TGI (786-0 renal) [µM] | GI50 (MOLT-4 leukemia) [µM] | TGI (MOLT-4 leukemia) [µM] | GI50 (SF-268 CNS) [µM] | TGI (SF-268 CNS) [µM]
1 | CC(C)=CC(=O)O[C@H]1C(=O)O[C@@H]2C[C@H]3[C@H](C)C(=O)C(O[C@@H]4O[C@H](CO)[C@@H](O)[C@H](O)[C@H]4O)=C[C@]3(C)[C@H]3[C@@H](O)[C@H](O)[C@]4(C(=O)O)OC[C@]32[C@@H]14 | 37.3 | > 100 | > 100 | > 100 | > 100 | > 100 | > 100 | 40 | > 100 | > 100 | > 100 | 22.4 | > 100 | > 100 | > 100
2 | Cc1ccc(OCC2OC(n3cnc4nc(Cl)nc(Cl)c43)CC2Oc2ccc(C)cc2)cc1 (stereo not drawn) | – | 14.1 | 24.5 | – | 37.8 | 19.7 | 20.5 | – | 55.5 | 72.2 | 19.9 | – | 5.76 | – | 23.4
3 | O=C(/C=C/c1cccc(Br)c1)c1cccs1 | – | 32.9 | 41.6 | – | 56.9 | 36.6 | 32.7 | – | 26.8 | 33.2 | 31.4 | – | 53.2 | – | 42.1
4 | CCOC(=O)c1cc(C(=O)c2ccccc2)n2nc(-c3ccc(Cl)cc3)ccc12 | – | 68.3 | > 100 | – | 81.8 | 38.8 | 39.3 | – | 66.3 | 49 | 33 | – | > 100 | – | 27.6
5 | COc1cccc(-c2ccc3c4c2O[C@H]2c5[nH]c6ccccc6c5C[C@@]5(O)[C@@H](C3)N(CC3CC3)CC[C@]425)c1 | – | > 23.1 | 5.27 | – | 5.21 | 3.04 | 3.05 | – | 3.15 | 6.83 | 3.09 | – | 9.34 | – | 3.37
6 | COc1ccc2[nH]c(Cl)c(/C=C3/C(=O)Nc4cc(C)c(OC)cc43)c2c1 | – | 22.1 | 19 | – | 6.47 | 17.1 | 15.2 | – | 18 | 19.2 | 19.8 | – | > 100 | – | 19.3
7 | Clc1cc2c(c(CSC3=NCN(CC4CC4)CN3)c1)OCOC2 | – | 38.3 | 39.3 | – | 72.9 | > 100 | 35.3 | – | 53.1 | 58.2 | 52.2 | – | 64 | – | 98.3
8 | FC(F)(F)c1ccccc1N1CCN(c2nc(-c3cccs3)nc3ccc(Br)cc23)CC1 | – | > 100 | > 100 | – | > 100 | > 100 | 46.3 | – | > 100 | > 100 | > 100 | – | > 100 | – | > 100
9 | C/C(=N/NC(=S)Nc1ccccc1Cl)c1cccc(/C(C)=N\NC(=S)Nc2ccccc2Cl)n1 | – | > 100 | > 100 | – | > 100 | > 100 | > 100 | – | > 100 | > 100 | > 100 | – | > 100 | – | > 100
10 | c1ccc(C2=Nc3nc4ccccc4n3C(c3ccccc3)C2)cc1 (stereo not drawn) | – | > 100 | > 100 | – | > 100 | > 100 | > 100 | – | > 100 | > 100 | > 100 | – | > 100 | – | > 100
11 | Cn1ccn2c3nc4ccccc4nc3c(=O)c(C#N)c12 | – | > 100 | > 100 | – | > 81.8 | > 100 | > 100 | – | > 100 | > 100 | > 89.9 | – | > 100 | – | > 100
12 | Cc1cc(-c2[nH]c(C(=O)O)cc2I)on1 | – | > 100 | > 100 | – | > 100 | > 100 | > 100 | – | > 100 | > 100 | > 100 | – | > 100 | – | > 100
13 | COC(=O)C1=C(C)NC2(O)C=CC(=O)C3C(=O)N(c4ccccc4)C(=O)C132 (stereo not drawn) | – | 78.7 | > 100 | – | > 100 | > 100 | > 100 | – | > 100 | > 100 | > 100 | – | > 100 | – | > 100
14 | Cc1c(C(=O)N2CCN(c3ccc([N+](=O)[O-])cc3)CC2)[n+](=O)c2cc(Cl)c(Cl)cc2n1[O-] | – | 73.4 | 32 | – | 32.7 | 42.7 | 34 | – | 61.5 | 23.1 | 30.8 | – | > 100 | – | 35.2
15 | NC(=Nc1ccc(O)cc1)S(=O)(=O)O | – | – | > 100 | – | > 100 | > 100 | > 100 | – | > 100 | > 100 | > 100 | – | > 100 | – | > 100
16 | NC(=O)c1nnc2cc(F)ccc2c1N | – | – | > 100 | – | > 100 | > 100 | > 100 | – | > 100 | > 100 | > 100 | – | > 100 | – | > 100
